Laboratory results taken from publication PMC4931022, “Arginine demethylation is catalysed by a subset of JmjC histone lysine demethylases” (Nature Communications, 2016).

Tests used:
Assay type in all cases: biochemical
KDM5C [1] = molecular target: T1, KDM5C (Homo sapiens, UniProt P41229); test: MALDI MS activity assay, recombinant KDM5C catalytic domain; details: peptide 10 μM, 1 h, 37 °C, MALDI-TOF MS; for observed arginine demethylation activity: KDM5C 2 μM, 2OG 100 μM, ascorbate 100 μM, Fe(II) 10 μM, 50 mM HEPES pH 7.5, −14 Da shift
T1 construct: KDM5C1–765 was produced as an N-terminally His6-tagged protein in Sf9 cells; His6 (N); made in house; host or cells: Sf9 cells (provided by the Structural Genomics Consortium)
T1 sequence (P41229 1-765): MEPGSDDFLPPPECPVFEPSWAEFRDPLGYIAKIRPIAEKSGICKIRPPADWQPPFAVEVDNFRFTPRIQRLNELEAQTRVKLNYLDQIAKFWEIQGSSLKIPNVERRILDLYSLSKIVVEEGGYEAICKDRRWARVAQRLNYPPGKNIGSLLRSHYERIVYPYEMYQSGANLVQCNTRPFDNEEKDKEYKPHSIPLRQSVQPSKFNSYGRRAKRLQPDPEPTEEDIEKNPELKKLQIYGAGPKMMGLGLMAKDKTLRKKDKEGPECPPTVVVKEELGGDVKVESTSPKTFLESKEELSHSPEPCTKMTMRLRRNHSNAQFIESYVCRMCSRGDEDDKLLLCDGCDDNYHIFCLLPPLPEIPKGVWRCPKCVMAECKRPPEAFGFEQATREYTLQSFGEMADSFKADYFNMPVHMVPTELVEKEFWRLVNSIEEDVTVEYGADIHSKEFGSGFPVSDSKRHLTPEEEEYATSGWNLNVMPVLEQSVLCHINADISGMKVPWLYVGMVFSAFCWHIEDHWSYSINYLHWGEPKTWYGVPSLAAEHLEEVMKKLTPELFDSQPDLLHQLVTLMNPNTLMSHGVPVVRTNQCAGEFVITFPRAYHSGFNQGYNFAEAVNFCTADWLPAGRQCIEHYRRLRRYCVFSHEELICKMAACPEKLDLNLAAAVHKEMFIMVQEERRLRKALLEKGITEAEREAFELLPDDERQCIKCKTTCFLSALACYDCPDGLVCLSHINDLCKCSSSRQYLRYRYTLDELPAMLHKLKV
Procedure: (§1) MALDI MS activity assays. Recombinant proteins (2 μM) were incubated with peptides (10 μM, sequences are given in Supplementary Table 1) and cofactors/substrates for 1 h at 37 °C, unless otherwise specified. Reactions were quenched with 1:1 (v/v) methanol and analysed with MALDI MS. Assay conditions for each enzyme are given in Supplementary Table 2. Negative controls without enzyme were included.
(§2) Supplementary Table 2 Assay conditions with truncated recombinant protein. […]

KDM3A = molecular target: T2, KDM3A (Homo sapiens, UniProt Q9Y4C1); test: MALDI MS activity assay, recombinant KDM3A catalytic domain; details: KDM3A 2 μM, peptide 10 μM, 1 h, 37 °C, 2OG 100 μM, ascorbate 100 μM, Fe(II) 50 μM, 50 mM HEPES pH 7.5; MALDI-TOF MS, −14 Da shift
T2 construct: KDM3A515–1,317; His6 (N); made in house; host or cells: Sf9 cells
T2 sequence (Q9Y4C1 515-1317 limits assumed): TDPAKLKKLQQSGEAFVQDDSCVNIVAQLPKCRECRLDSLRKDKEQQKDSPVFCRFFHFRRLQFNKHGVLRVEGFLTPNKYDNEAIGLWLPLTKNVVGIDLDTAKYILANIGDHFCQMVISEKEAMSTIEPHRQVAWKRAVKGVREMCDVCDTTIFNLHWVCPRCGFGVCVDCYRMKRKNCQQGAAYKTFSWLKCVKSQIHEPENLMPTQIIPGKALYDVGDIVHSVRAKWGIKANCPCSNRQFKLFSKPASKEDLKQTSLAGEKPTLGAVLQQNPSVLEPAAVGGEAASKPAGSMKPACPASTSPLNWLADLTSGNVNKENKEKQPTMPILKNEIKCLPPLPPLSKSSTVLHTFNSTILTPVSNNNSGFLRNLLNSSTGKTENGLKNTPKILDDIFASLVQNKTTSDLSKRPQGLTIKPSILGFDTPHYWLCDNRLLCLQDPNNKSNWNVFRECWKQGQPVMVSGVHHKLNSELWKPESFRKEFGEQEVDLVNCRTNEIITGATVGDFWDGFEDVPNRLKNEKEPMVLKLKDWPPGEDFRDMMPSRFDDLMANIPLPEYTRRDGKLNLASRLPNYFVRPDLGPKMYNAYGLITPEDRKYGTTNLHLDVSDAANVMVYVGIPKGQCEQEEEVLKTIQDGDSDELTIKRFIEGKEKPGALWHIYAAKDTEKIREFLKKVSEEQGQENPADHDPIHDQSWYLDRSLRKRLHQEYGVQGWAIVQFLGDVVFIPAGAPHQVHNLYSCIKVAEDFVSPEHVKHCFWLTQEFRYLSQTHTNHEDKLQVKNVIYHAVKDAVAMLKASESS
Procedure: as §1
(§3) Supplementary Table 2 Assay conditions with truncated recombinant protein.
(§4) Supplementary Table 3 Assay conditions with full length Flag-tagged KDMs.

KDM4E [2] = molecular target: T3, KDM4E (Homo sapiens, UniProt B2RXH2); test: Formaldehyde dehydrogenase-coupled demethylation assay, KDM4E; details: for kcat/KM: KDM4E; for kcat / Km: KDM4E catalytic domain, apparent, preliminary, 37 °C, mean±s.e.m., n=3; for kcat: FDH/NAD+-coupled assay; for Km: FDH/NAD+-coupled formaldehyde assay, 2OG 200 μM, Fe(II) 10 μM, ascorbate 100 μM
T3 construct: His6 (N); made in house; host or cells: Escherichia coli
T3 sequence (B2RXH2 1-337): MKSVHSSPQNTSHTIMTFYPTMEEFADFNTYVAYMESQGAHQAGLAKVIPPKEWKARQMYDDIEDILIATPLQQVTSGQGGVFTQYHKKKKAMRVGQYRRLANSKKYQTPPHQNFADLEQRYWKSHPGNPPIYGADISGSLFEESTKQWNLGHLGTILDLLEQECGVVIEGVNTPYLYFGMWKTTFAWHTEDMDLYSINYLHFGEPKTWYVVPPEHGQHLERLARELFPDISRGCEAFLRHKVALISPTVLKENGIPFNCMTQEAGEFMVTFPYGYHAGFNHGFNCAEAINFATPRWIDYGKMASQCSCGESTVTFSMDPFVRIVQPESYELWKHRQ
Procedure: (§5) Formaldehyde dehydrogenase-coupled assays. Preliminary kinetic parameters were determined by detection of the formaldehyde by-product of the demethylation reaction using a FDH (formaldehyde dehydrogenase-coupled)/NAD^+-coupled assay as previously described. Assays were carried out in buffer (enzyme-dependent) with the addition of Fe(II) ammonium sulfate (10 μM), sodium ascorbate (100 μM), 2OG (200 μM), NAD^+ (500 μM), enzyme (0.2–4 μM) and FDH enzyme (0.025 U per assay, Sigma-Aldrich; total volume 30 μl) and were conducted at 37 °C in clear-bottom black 384-well plates. […] The Km and Vmax values were calculated from the reaction rate during the linear phase of formaldehyde production, as determined by the slope of the fluorescence signal recorded.

KDM5C [3] = molecular target: T1, KDM5C; test: Formaldehyde dehydrogenase-coupled demethylation assay, KDM5C
Procedure: as §5

KDM6B [4] = molecular target: T4, KDM6B (Homo sapiens, UniProt O15054); test: MALDI MS activity assay, recombinant KDM6B catalytic domain; details: KDM6B 2 μM, peptide 10 μM, 1 h, 37 °C, 2OG 100 μM, ascorbate 100 μM, Fe(II) 10 μM, 50 mM HEPES pH 7.5, 150 mM NaCl; MALDI-TOF MS, −14 Da shift
T4 construct: His6 (N); made in house; host or cells: Escherichia coli
T4 sequence (O15054 1141-1590 limits assumed): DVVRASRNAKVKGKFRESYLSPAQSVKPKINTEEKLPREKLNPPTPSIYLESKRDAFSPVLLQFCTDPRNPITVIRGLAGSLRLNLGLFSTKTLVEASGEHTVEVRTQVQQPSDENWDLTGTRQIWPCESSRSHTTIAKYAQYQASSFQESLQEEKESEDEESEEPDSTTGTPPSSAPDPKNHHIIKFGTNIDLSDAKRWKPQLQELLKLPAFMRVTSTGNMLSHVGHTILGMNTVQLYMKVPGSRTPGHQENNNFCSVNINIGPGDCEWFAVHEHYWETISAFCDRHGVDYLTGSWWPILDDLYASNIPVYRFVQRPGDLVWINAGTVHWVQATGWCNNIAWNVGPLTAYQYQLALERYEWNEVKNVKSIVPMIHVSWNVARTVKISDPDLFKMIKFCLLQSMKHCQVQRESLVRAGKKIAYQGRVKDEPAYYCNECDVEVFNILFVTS
Procedure: as §1, §3, §4

KDM4E [5] = molecular target: T3, KDM4E; test: MALDI MS activity assay, recombinant KDM4E catalytic domain; details: peptide 10 μM, 1 h, 37 °C, MALDI-TOF MS; for observed arginine demethylation activity: KDM4E 2 μM, 2OG 200 μM, ascorbate 100 μM, Fe(II) 10 μM, 50 mM HEPES pH 7.5, −14 Da shift
Procedure: as §1, §2

KDM6B [6] = molecular target: T4, KDM6B; test: Formaldehyde dehydrogenase-coupled demethylation assay, KDM6B
Procedure: as §5

[7] = calculated from the average kcat and KM values, μM^−1 s^−1 for this quantity

| observed arginine demethylation activity (KDM5C [1]) | observed arginine demethylation activity (KDM3A) | observed arginine demethylation activity (KDM6B [4]) | observed arginine demethylation activity (KDM4E [5]) | Substance | also measured |
| --- | --- | --- | --- | --- | --- |
|  |  |  |  | H3(14-34)K27me3: 21-residue recognized histone H3 N-methylated-lysine peptide substrate for KDM6B | kcat (KDM6B [6]; KDM6B catalytic domain, apparent, preliminary, FDH/NAD+-coupled assay, 37 °C, mean±s.e.m., n=3): 11.7±0.1 × 10^−3 s^−1; Km (KDM6B [6]; KDM6B catalytic domain, apparent, preliminary, FDH/NAD+-coupled formaldehyde assay, 37 °C, 2OG 200 μM, Fe(II) 10 μM, ascorbate 100 μM, mean±s.e.m., n=3): 6.7 ± 0.6 µM; kcat/KM (KDM6B [6]; KDM6B, calculated from the average kcat and KM values): 1,750.0 × 10^−6 |
| − | − | − | + | SG-Rme2s-GKGGKGLGKGGA [H4 (1–15) R3me2s, 'natural' histone H4 residues 1-15 peptide symmetrically dimethylated at R3] |  |
| − | − | − | − | SG-Rme-GKGGKGLGKGGAK [H4 (1–15) R3me, 'natural' histone H4 peptide monomethylated at R3] |  |
| − | − | − | − | STGGKAP-Rme2a-KQLATKA [H3 (10–24) R17me2a, 'natural' histone H3 peptide asymmetrically dimethylated at R17] |  |
| − | − | − | − | STGGKAP-Rme-KQLATKA [H3 (10–24) R17me, 'natural' histone H3 peptide monomethylated at R17] |  |

| Substance | observed arginine demethylation activity (KDM5C [1]) | observed arginine demethylation activity (KDM3A) | observed arginine demethylation activity (KDM6B [4]) | observed arginine demethylation activity (KDM4E [5]) | also measured |
| --- | --- | --- | --- | --- | --- |
| A-Rme2a-TKQTARKSTGGKA [H3(1-15)R2me2a, 'natural' histone H3 peptide asymmetrically dimethylated at R2] | + | − | − | + | demethylation, in words (KDM5C [1]; KDM5C catalytic domain 2 μM): relatively good RDM substrate; kcat/KM (KDM4E [2]): 0.000114 µM⁻¹ s⁻¹; kcat (KDM4E [2]): 9.9±1.0 × 10^−3 s^−1; Km (KDM4E [2]): 86.9 ± 16.5 µM; kcat/KM (KDM4E [2]; [7]): 114.0 × 10^−6; kcat/KM, times lower than that for H3K4me3 (KDM5C [3]; KDM5C): 14 times; kcat (KDM5C [3]; KDM5C catalytic domain, apparent, preliminary, FDH/NAD+-coupled assay, 37 °C, mean±s.e.m., n=3): 12.0±0.7 × 10^−3 s^−1; Km (KDM5C [3]; KDM5C catalytic domain, apparent, preliminary, FDH/NAD+-coupled formaldehyde assay, 37 °C, 2OG 200 μM, Fe(II) 10 μM, ascorbate 100 μM, mean±s.e.m., n=3): 19 ± 1.9 µM; kcat/KM (KDM5C [3]; KDM5C, calculated from the average kcat and KM values, μM^−1 s^−1 for this quantity): 630.0 × 10^−6; demethylation, in words (KDM4E [5]; KDM4E catalytic domain 2 μM): relatively good RDM substrate |
| SG-Rme2a-GKGGKGLGKGGA [H4(1-15)R3me2a, 'natural' histone H4 residues 1-15 peptide asymmetrically dimethylated at R3] | + | − | − | + | kcat (KDM4E [2]): 2.1±0.1 × 10^−3 s^−1; Km (KDM4E [2]): 122 ± 10.1 µM; kcat/KM (KDM4E [2]; [7]): 17.7 × 10^−6 |
